Measurements: PMC9469500, “Targeting an Initiator Allergen Provides Durable and Expansive Protection against House Dust Mite Allergy” (ACS Pharmacology & Translational Science, 2022)
Converted amounts (≈) assume the structure as drawn.

Experiments:
thermodynamic solubility = format: physicochemical; conditions: thermodynamic from solid
plasma stability (human) = format: in vitro ADME
[1] = Plasma protein binding (human); format: in vitro ADME
Method: Plasma Protein Binding Assay
Plasma protein binding (PPB) was determined using Rapid Equilibrium Dialysis chambers with 8 kDa cut-off inserts (Fisher Scientific UK Ltd, Leicestershire, UK). Rat (Sprague Dawley strain) plasma EDTA K2 (pooled, mixed sex, SeraLab, West Sussex, UK) was centrifuged (13,000 x g, 10 min) to remove precipitates before addition of compounds (initial concentration 5 µM). Concentrations were determined by liquid chromatography-tandem mass spectrometry (LC-MS-MS) (AB Sciex 3200 QTrap) after 4 h incubation at 37 °C with binding being calculated from the concentration of compound in each chamber. Assays were performed in replicate and the data expressed as mean ± s.e.
Cellular Stability of Compounds […]
Kaighn’s modification of Ham’s F12 medium (F12K). Cells were prepared for assay by washing 3 times with serum-free F12K. NR8383 Airway macrophages were grown in suspension culture in F12K, collected by centrifugation, washed in serum-free medium and aliquoted into test plates (1.4 x 10^6 cells/well). Both cell lines were treated with ADI compounds (100 nM) in serum -free F12K in a 5% CO 2 environment at 37 […]
n-Octanol (0.7 mL), pre -saturated with 10 mM PBS, pH7.4, was added to test compound (~1 mg) in a 2 mL HPLC vial followed by PBS (0. 7 mL), which had been pre -saturated with n -octanol. […]

[2] = tested on: rat alveolar macrophage line NR8383; test: Cellular stability in macrophages; format: in vitro ADME; conditions: 100 nM compound
Method: Cellular Stability of Compounds
The cellular stability of compounds in vitro was tested using rat airway epithelial cell line L2 and rat alveolar macrophage line NR8383 (ATCC©CRL-2192™). Assays were performed in replicate and the data expressed as mean ± s.e. mean. L2 cells were cultured to confluence in T25 flasks or 24 -well plates using Kaighn’s modification of Ham’s F12 medium (F12K). Cells were prepared for assay by washing 3 times with serum-free F12K. NR8383 Airway macrophages were grown in suspension culture in F12K, collected by centrifugation, washed in serum-free medium and aliquoted into test plates (1.4 x 10^6 cells/well). Both cell lines were treated with ADI compounds (100 nM) in serum -free F12K in a 5% CO 2 environment at 37 °C. Samples were removed for quantitative analysis by LC -MS-MS using appropriate multiple reaction monitoring transitions for each analyte. […]
n-Octanol (0.7 mL), pre -saturated with 10 mM PBS, pH7.4, was added to test compound (~1 mg) in a 2 mL HPLC vial followed by PBS (0. 7 mL), which had been pre -saturated with n -octanol. The mixture was shaken for 90 min before centrifugation for 10 min at 4,000 rpm. The upper organic layer (0.2 mL) and the aqueous layer (0.5 mL) were removed for analysis by LC-MS. Peak identity was confirmed by mass spectrometry and concentration assessed spectrophotometrically using a diode array detector. The log

sensitized Balb/c mice = test: HDM extract challenge in sensitized Balb/c mice (BAL flow cytometry); format: in vivo; conditions: HDM 10; i.t. 2 h prior to challenge; BAL 48 h
Method: Mice (female Balb/c 20 ± 2 g, Charles River) were isolator maintained in ventilated cages (Allentown IVC Racks, 36 Mini Isolator System, USA) that had been prepared for use by prior autoclaving. Environmental controls were 22–24 °C/60–80% relative humidity on a 12 h light/dark cycle. Animals were allowed ad libitum access to reverse osmosis-purified water and food (MF-18 laboratory rodent diet). Where prestudy serum samples were mandated, these were taken from the retro-orbital sinus on acclimatization in the isolator facility. Animals were randomly assigned to groups and sensitized to the HDM extract or treated with the vehicle on days 0, 7, and 14. […] Animals were anesthetized with propofol 48 h later (AstraZeneca, 10 mg/mL, 50 μL/mouse, i.v.), and terminal blood samples were taken from the retro-orbital sinus. BAL (3 × 0.5 mL aliquots of PBS) was performed, and the returns were combined for enumeration.
Flow cytometry (FACS) of BAL fluid was performed with a BD FACSAria instrument (Becton Dickinson Biosciences, USA) and the FACSDiva software. Analyses were performed by operators who were unaware of the sample identity. […]

unsensitized BN rats = test: HDM extract challenge in unsensitized (naive) BN rats, duration of protection; format: in vivo
[3] = hepatocyte stability (rat); format: in vitro ADME; conditions: hepatocytes
plasma stability (rat) = format: in vitro ADME
[4] = HDM-naive rats, 15 μg/kg i.t. aerosol 2 h prior to HDM 10, BAL 48 h
[5] = single i.t. dose (15 μg/kg compound 1, 46 μg/kg compound 2), BAL 48 h

Method for Pharmacokinetics in rats: Soluble formulations were developed and verified by high performance liquid chromatography (HPLC)
1 mL/kg) and p.o. (5 mg/kg, 5 mL/kg) in non-fasted Sprague-Dawley rats (male, 200-300 g, 10-16 weeks
of age, groups of three animals per route per compound). Timed blood samples were taken after dosing
and plasma prepared for LC-MS-MS quantification of the test substance after inclusion of an internal
standard. A non -compartmental model in WinNonlin software was used to calculate pharmacokinetic

## CC(C)[C@H](NC(=O)[C@H](C)NC(=O)[C@@H](NC(=O)c1ccccc1)C(C)(C)C)C(=O)C(=O)NCc1ccccc1 [Compound 1, N-{(S)-1-[(S)-1-((S)-1-benzylaminooxalyl-2-methyl-propylcarbamoyl)-ethylcarbamoyl]-2,2-dimethyl-propyl}-benzamide]
Thermodynamic solubility
  solubility thermodynamic: 84 µM (≈ 43.9 µg/mL)
Plasma stability (human)
  remaining at 2 h: 100%
[1]
  fraction unbound at 4 h, 5 µM: 0.004
[2]
  cell stability: 100; 100
Sensitized Balb/c mice
  doses required for good activity against the HDM extract: > 10 µg/kg
Unsensitized BN rats; BAL performed 24 h after HDM extract challenge, dosed 2 h prior
  neutrophil response: clear inhibition
Unsensitized BN rats; [4]
  BAL monocyte/macrophage numbers: suppressed
  BAL neutrophil numbers: suppressed
  cellularity of BAL fluid: suppressed
Unsensitized BN rats; Rattus norvegicus, Eosinophil, inhaled or nasal, 48 h, read-out: inhibition of eosinophil response at peak
  inhibition at 0.015 mg/kg: > 60%
Unsensitized BN rats; estimated, Figure 5D–F, in words
  onset: temporal separation between drug dosing and HDM challenge required to achieve 50% inhibition of the eosinophil response: faster in onset
Unsensitized BN rats; focused library, durability of inhibition studies
  performance in vivo (maximum inhibition of the eosinophil response, Figure 5A): performed well
Unsensitized BN rats; intervening pretreatment intervals, BAL 48 h
  effects on BAL neutrophils: insignificant
Unsensitized BN rats; pretreatment 60 min, 15 μg/kg i.t., BAL 48 h
  inhibition of BAL monocytes/macrophages (significance): significant
Unsensitized BN rats; short or long pretreatment intervals, BAL 48 h
  effects on BAL neutrophils: inhibitory
Unsensitized BN rats; shorter pretreatment times, BAL 48 h
  effect on BAL monocytes/macrophages: modest inhibition
Unsensitized BN rats; [5]
  effect on eosinophils with 6–8 h separation of dose and challenge: substantial inhibition
  time of administration before challenge giving peak effects on eosinophils: 2 h
[3]
  half-life: 118 min
[3]; read-out: hepatocyte intrinsic clearance
  CLint scaled: 28.2 mL/min/kg
Plasma stability (rat)
  remaining at 2 h: 100%
Pharmacokinetics in rats; male, Sprague-Dawley, rat, plasma, po, 5 mg/kg
  bioavailability: 39%
Pharmacokinetics in rats; male, Sprague-Dawley, rat, plasma, po, 5 mg/kg, rat p.o., fasted
  half-life: 126 min
Pharmacokinetics in rats; male, Sprague-Dawley, rat, plasma, po, 5 mg/kg, rat p.o., fed
  half-life: 174 min
Pharmacokinetics in rats; rat p.o.
  volume of distribution: 0.9 L/kg
Pharmacokinetics in rats; rat p.o., fasted
  clearance: 27 (fasted) mL/min/kg
